Experiment in all cases: In vitro antimicrobial activity, two-fold agar-plate dilution method (MIC)
Holding throughout (type): cell-based

The test system of assay [1] is Staphylococcus aureus 209P JC-1. Particulars: HI-agar, 37° C., 20 hours. As for the experimental part:
(§1) In vitro Antimicrobial activity was determined by the two-fold agar-plate dilution method as described below.
(§2) One loopful of an overnight culture of each test strain in Tripticase-soy broth (approximately 10^8 viable cells per ml) was streaked on heart infusion agar (HI-agar) containing graded concentrations of antimicrobial agents, and the minimal inhibitory concentration (MIC) was expressed in term of μg/ml after incubation at 37° C. for 20 hours.

The subject of the next assay is Escherichia coli 31. Particulars: HI-agar, 37° C., 20 hours. As for the experimental part: as §1, §2
Assay [2] deals with Bacillus subtilis ATCC 6633. Particulars: 37° C., 20 hours. Here is the method:
as §1, §2

Setting [3] is: ATCC6633, HI-agar, read-out: MIC.

The values that follow come from patent US4369312A, “Method of producing oxo-containing azetidinone compounds” (Fujisawa Pharmaceutical Co., Ltd., priority 1980, dated 1983).

Molecules are shown by their SMILES. Converted amounts (≈) assume the structure as drawn. Where two headings read alike, the source gives them in different places.

One may read the MIC as the least concentration at which growth counts as inhibited.

As for `CC(=O)OCC1=C(C(=O)OC(c2ccccc2)c2ccccc2)N2C(=O)C(=O)C2SC1` (stereo not drawn) [Example 2(3), benzhydryl 7-oxocephalosporanate], the MIC is 3.13 µg/mL (≈ 7.15 µM) in assay [1], 1.56 µg/mL (≈ 3.57 µM) with Escherichia coli 31 and 0.78 µg/mL (≈ 1.78 µM) in assay [2] (HI-agar).

On to `CON(C(=O)Cc1cccs1)[C@@H]1C(=O)N2C(C(=O)O)=C(COC(C)=O)CS[C@H]12` [Test compound 1, Sodium 7-[N-methoxy-2-(2-thienyl)acetamido]cephalosporanate], for which the MIC worked out at 6.25 µg/mL in assay [1] (read-out: MIC), 6.25 µg/mL in the assay with Escherichia coli 31 (read-out: MIC) and 0.78 µg/mL in assay [2] (setting [3]).

For the molecule `Cn1nnnc1SCC1=C(C(=O)O)N2C(=O)[C@@H](N(O)C(=O)Cc3cccs3)[C@H]2SC1` [Test compound 3, 7-[N-Hydroxy-2-(2-thienyl)acetamido]-3-(1-methyl-1H-tetrazol-5-ylthiomethyl)-3-cephem-4-carboxylic acid], the results for the MIC (in assay [1] (read-out: MIC); with Escherichia coli 31 (read-out: MIC); in assay [2] (setting [3])) were 6.25 µg/mL (≈ 13.3 µM), 6.25 µg/mL (≈ 13.3 µM) and 3.13 µg/mL (≈ 6.68 µM), respectively.
